Reference: patent US20080312291A1, “Heterocyclic Gaba-b Modulators” (priority 2005, published 2008)
pEC50: −log10 of the molar value.

Molecular target: T1, GABABR1a/GABABR2 heterodimer (Homo sapiens, UniProt O75899+Q9UBS5)
T1 construct: expressed in transfected cells; membranes prepared from it)
Experiment: [35S]-GTPγS binding assay, potency of PAM
Assay type: biochemical
Conditions: potency of the positive allosteric modulator; log EC50 for GABA plotted against log concentration of modulator
Description: GABABR1a and GABABR2 were cloned from human brain cDNA and subcloned into pCI-Neo(Promega) and pALTER-1 (Promega), respectively. A GABABR1a-Gαqi5 fusion protein expression vector was constructed using the pCI-Neo-GABABR1a cDNA plasmid and pLEC1-Gαqi5 (Molecular Devices, CA). In order to make the Gαqi5 pertussis toxin insensitive, Cys356 was mutated to Gly using standard PCR methodology with the primers 5′-[…]-3′ (forward) and 5′-GCGGCCG […]-3′ (reverse). The Gαqi5mut cDNA was ligated into the BamHI and NotI sites of pcDNA3.0 (Invitrogen). The GABAB R1a coding sequence was amplified by PCR from pCI-Neo-GABABR1a using the primers, 5′-[…]-3′ (forward) and 5′-[…]-3′ (reverse) and subcloned into the BamHI site of pcDNA3.0-Gαqi5mut. […]
[^35S]-GTPγS binding assays were performed at 30° C. for 45 min in membrane buffer (100 mM NaCl, […], 1 mM EDTA, 5 mM HEPES, pH 7.4) containing 0.025 μg/μl of membrane protein (prepared from the cell lines described above) with 0.01% bovine serum albumin (fatty acid free), 10 μM GDP, 100 μM DTT and 0.53 nM [^35S]-GTPγS (Amersham Pharmacia Biotech) in a final volume of 200 μl. Nonspecific binding was determined in the presence of 20 μM GTPγS. […]

T1 sequence (Q9UBS5 15-961 limits assumed): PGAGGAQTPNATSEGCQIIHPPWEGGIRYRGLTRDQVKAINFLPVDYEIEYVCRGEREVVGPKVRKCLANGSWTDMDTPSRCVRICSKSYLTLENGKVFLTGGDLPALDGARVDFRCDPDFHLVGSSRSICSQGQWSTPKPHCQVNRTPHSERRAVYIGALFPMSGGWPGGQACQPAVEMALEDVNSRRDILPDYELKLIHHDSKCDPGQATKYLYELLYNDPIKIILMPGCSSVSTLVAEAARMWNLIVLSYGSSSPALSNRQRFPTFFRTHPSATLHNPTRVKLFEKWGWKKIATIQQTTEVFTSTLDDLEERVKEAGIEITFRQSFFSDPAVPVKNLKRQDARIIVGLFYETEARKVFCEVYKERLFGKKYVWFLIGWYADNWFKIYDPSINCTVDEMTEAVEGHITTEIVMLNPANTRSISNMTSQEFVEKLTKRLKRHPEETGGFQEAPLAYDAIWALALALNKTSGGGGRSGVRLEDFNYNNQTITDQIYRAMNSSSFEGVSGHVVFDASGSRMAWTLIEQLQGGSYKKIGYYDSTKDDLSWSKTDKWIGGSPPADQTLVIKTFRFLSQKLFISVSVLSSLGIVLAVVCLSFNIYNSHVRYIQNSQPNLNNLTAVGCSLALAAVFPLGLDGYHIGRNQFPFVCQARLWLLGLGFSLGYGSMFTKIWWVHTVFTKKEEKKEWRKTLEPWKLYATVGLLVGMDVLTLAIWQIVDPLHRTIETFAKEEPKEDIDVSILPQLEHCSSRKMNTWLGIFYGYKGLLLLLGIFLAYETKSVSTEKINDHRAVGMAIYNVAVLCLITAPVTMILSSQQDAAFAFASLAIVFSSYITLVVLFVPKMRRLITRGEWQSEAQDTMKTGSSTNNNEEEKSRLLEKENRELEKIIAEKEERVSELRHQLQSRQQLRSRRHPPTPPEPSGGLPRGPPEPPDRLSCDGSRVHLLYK
T1 sequence (O75899 42-941): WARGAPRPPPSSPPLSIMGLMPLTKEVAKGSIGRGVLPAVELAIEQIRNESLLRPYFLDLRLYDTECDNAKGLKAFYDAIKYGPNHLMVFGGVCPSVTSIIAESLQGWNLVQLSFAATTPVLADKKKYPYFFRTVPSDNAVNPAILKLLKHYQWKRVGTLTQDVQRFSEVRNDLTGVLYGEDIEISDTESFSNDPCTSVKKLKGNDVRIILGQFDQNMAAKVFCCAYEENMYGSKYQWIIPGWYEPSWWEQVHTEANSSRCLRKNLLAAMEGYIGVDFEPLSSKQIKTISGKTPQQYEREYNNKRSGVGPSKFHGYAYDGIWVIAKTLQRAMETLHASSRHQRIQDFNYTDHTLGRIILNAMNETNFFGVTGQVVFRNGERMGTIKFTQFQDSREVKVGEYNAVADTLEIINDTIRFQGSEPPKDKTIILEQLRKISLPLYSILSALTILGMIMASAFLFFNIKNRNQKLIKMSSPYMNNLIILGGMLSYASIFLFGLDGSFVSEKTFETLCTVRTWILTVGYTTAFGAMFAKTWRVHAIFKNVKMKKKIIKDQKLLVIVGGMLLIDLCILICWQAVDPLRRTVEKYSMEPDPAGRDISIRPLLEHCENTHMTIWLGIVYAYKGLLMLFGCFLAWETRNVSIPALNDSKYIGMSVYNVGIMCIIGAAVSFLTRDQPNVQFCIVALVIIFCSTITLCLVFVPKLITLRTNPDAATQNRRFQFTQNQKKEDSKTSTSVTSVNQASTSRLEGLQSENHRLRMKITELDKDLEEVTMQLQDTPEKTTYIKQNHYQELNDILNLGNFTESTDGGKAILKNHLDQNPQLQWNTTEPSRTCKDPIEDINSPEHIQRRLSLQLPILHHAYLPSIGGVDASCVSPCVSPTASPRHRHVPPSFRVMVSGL

Question: How did the pEC50 turn out when `CCOC(=O)c1nc(C(C)C)oc1NC(=O)c1ccc(C(C)(C)C)cc1` [Example 21, Ethyl 5-[(4-tert-butylbenzoyl)amino]-2-isopropyl-1,3-oxazole-4-carboxylate] was run?
Answer: 5.14

Question: `CCOC(=O)c1nc(C(C)C)sc1NC(=O)C(CC)c1ccccc1` (centres unmarked) [Example 16, Ethyl 2-isopropyl-5-[(2-phenylbutanoyl)amino]-1,3-thiazole-4-carboxylate] was tested. Which pEC50 did it give?
Answer: 5.71
